What was measured:
[1] = tested on: PCA-induced serotonin depletion (5HT uptake into 5HT neurons), rat whole brain; assay: Antagonism of parachloroamphetamine (PCA)-induced depletion of serotonin levels from rat brain in vivo; design: species or system Sprague-Dawley CD male rats; conditions: subcutaneous, together with 6.6 mg/kg PCA, whole brain serotonin four hours later
Excerpt: Ability of (1-{2-[1-(3,4-Dichloro-phenyl)-ethyl]-phenyl}-ethyl)-methyl-amine Hydrochloride to Antagonize Parachloroamphetamine (PCA)-induced Depletion of Serotonin Levels from Rat Brain In Vivo
Serotonin uptake blockers show a dose-dependent antagonism of the serotonin-depleting action of PCA, a drug which requires 5HT uptake into 5HT neurons to exert its effect. Sprague-Dawley CD male rats (180-230 g.) in groups of five received two simultaneous subcutaneous injections: either the named test compound (at different dosage levels)+6.6 mg/kg body weight PCA, water+6.6 mg/kg body weight PCA, or water+water (controls). The rats were decapitated four hours later and their whole brain assayed for serotonin content by the Bogdanski method. Homogenates of brain in 0.1N HCl were made alkaline with borate buffer and extracted with butanol. The solvent phase was then extracted with 0.1N HCl. The aqueous extracts were acidified with concentrated HCl and the intrinsic fluorescence of serotonin measured in a spectrophotofluorometer. The ED50, i.e., the dose giving a 50% reversal of the PCA-induced serotonin depletion, was estimated to be 0.1 mg/kg body weight. Similarly, the ED50 for other compounds in Examples 1-17 were determined and were <0.3 mg/kg.

[2] = tested on: immobility of Swiss-Webster CD male mice; assay: Reduction of behavioral despair in vivo (modified Porsolt method); conditions: mouse, subcutaneous, tested one hour after injection, linear regression analysis of % MPE data
Procedure: Reduction of Behavioral Despair In Vivo (Modified Porsolt Method) by (1-{2-[1-(3,4-Dichloro-phenyl)-ethyl]-phenyl}-ethyl)-methyl-amine hydrochloride.
A modification of the procedure described by Porsolt et al., Arch. Int. Pharmnacodyn., 229, pp. 327-336 (1977) was used. A number of Swiss-Webster CD male mice weighing 25-30 g. were housed under standard laboratory conditions for at least one week prior to experimentation. Groups of 10 mice were then injected subcutaneously with either a given dosage of the named test compound or vehicle (5% Emulphor: 5% ethanol: 90% normal saline). One hour later the mice were placed individually in 1 liter beakers containing 7 cm of 25° C. water. […] A total of ten observations were made, each being scored as “0=animal moving, swimming, attempting to escape” or “1=animal immobile”. The number of positive observations for each mouse was then totaled and a mean immobility score calculated for the group of ten. […] From the % MPE data a % MPE50 value, i.e. the dosage producing a 50% reduction in immobility relative to control, was determined by linear regression analysis to be 5.2 mg/kg body weight for the named test compound. Similarly, the % MPE50 values were determined for other compounds in examples 1-17 and were <8.0 mg/kg.

With `CNC(C)c1ccccc1C(C)c1ccc(Cl)c(Cl)c1.Cl` (centres unmarked) [(1-{2-[1-(3,4-Dichloro-phenyl)-ethyl]-phenyl}-ethyl)-methyl-amine Hydrochloride] the “ED50, the dose giving a 50% reversal of the PCA-induced serotonin depletion” value [1] was 0.1 mg/kg body weight and the “% MPE50, the dosage producing a 50% reduction in immobility relative to control” value [2] was 5.2 mg/kg body weight.

Reference: patent US6759435B1, “Antidepressant drugs and methods” (A.P. Group Inc., priority 2003, dated 2004)
